Measured values as given in patent publication US20220072022A1, “ANTI-AGING AGENT OR LIFE-EXTENDING AGENT” (StaGen Co., Ltd., priority 2019, published 2022).

Experiments:
C. elegans = settings: Non-Patent Documents 13 to 16; cited from earlier work
[1] = test system: mitochondria of the muscle of C. elegans (N2); test: Effect of febuxostat on mitochondrial morphology in nematode muscle, electron microscopy (Example 3); type: in vivo; settings: cultured 18 days in the presence of 20 μg/mL of febuxostat, compared with FBX(−), FIG. 5
Procedure: The effect of febuxostat on lifespan was examined using a wild type strain (N2, Bristrol) of C. elegans as a nematode. In addition, mitochondria of the nematode cultured in the absence and presence of febuxostat were compared under electron microscopy.
On the 18th day of culturing, nematodes were fixed by the following method. An M9 buffer comprising 8% ethanol was dropped on a slide glass, and the nematodes were placed therein and allowed to stand until the nematodes stopped moving (about 5 minutes). Next, a fixing solution was placed on another slide glass, and the nematodes that had stopped moving were transferred to the fixing solution. The fixing solution comprises 2% paraformaldehyde+2% glutaraldehyde/0.1M phosphate buffer (pH 7.4), and was adjusted prior to use.
Subsequently, a 22 G injection needle was used to cut the nematodes in the following procedure.
First, the cranial side was cut from the pharynx, and then amputation was performed around Vulva. In this experiment, in order to observe the mitochondria of the muscle behind Vulva with an electron microscope, only the caudal side was collected and placed in an Eppendorf tube comprising a fixing solution (4° C.)
Observation with an electron microscope was carried out by requesting the Hanaichi UltraStructure Research Institute (Okazaki City, Aichi Prefecture) using an electron microscope HITACHI H-7600 (100 kV).

[2] = test system: C. elegans wild type strain (N2, Bristrol); test: Effect of febuxostat on nematode lifespan, UV-killed Escherichia coli plus kanamycin (Example 3); type: in vivo; settings: N2, febuxostat 5, 10, 20 μg/mL, FIG. 4
Procedure: The effect of febuxostat on lifespan was examined using a wild type strain (N2, Bristrol) of C. elegans as a nematode. In addition, mitochondria of the nematode cultured in the absence and presence of febuxostat were compared under electron microscopy. The culturing method and culturing conditions for nematodes (N2) were almost the same as those in Example 1 except for the method for treating the food added to the medium. Generally, Escherichia coli is added to the NGM plate as food for nematodes; however, when Escherichia coli grows, it may affect metabolites, etc. Therefore, a method of adding the antibiotic ampicillin to stop the growth of Escherichia coli is performed. However, it cannot be completely denied that the presence of ampicillin in the NGM plate had some effect. Therefore, instead of adding ampicillin, Escherichia coli was killed by being irradiated with ultraviolet rays, and kanamycin was further added. In this way, Escherichia coli as food was treated differently from Example 1, and it was checked whether the same experimental results as in Example 1 could be obtained. The concentration of febuxostat added to the NGM plate was 5, 10, 20 μg/mL.

[3] = test system: C. elegans daf-16 gene variant strain (mu86); test: Extension of C. elegans (nematode) lifespan by febuxostat, daf-16 variant strain (Example 1); type: in vivo
Procedure: (§1) Extension of lifespan by febuxostat was examined using a wild type strain (N2, Bristrol) and a daf-16 gene (nematode ortholog of human transcription factor FOXO; a typical example of shortened lifespan in nematode variant due to a transcription factor that is suppressed by insulin signals) variant strain (mu86). Both strains were bred at 20° C.
(§2) In order to keep the developmental stage of the strains used for lifespan measurement constant, it was waited until food (Escherichia coli) was exhausted and growth of first instar larvae stopped. The nematode was cut and planted together with agar in a petri dish with food.
(§3) Ampicillin (100 μg/ml) was added to a 6 cm NGM plate (standard medium for nematode culture) to inhibit the growth of the food Escherichia coli strain and its associated metabolism, and OP50 (the food Escherichia coli strain) and FBX were added ([…]).
(§4) When the cut and planted nematodes became adults, they were washed out of the petri dish using M9 buffer and collected. The nematodes were suspended in Eppendorf tubes. An equal amount of bleach solution (a mixture of 4N NaOH, hypochlorous acid solution, and M9 buffer at a ratio of 2:3:5) to the nematode suspension was added and mixed. […]
(§5) Life or death was determined for each individual every other day, and the data was recorded. […]
(§6) The lifespan tracking was completed when it was determined that all nematodes had died.

[4] = test system: C. elegans wild type strain (N2, Bristrol); test: Extension of C. elegans (nematode) lifespan by febuxostat, wild type strain (Example 1); type: in vivo; settings: wild type strain N2, febuxostat 10 mg/ml, 20° C., FIG. 2
Procedure: as §1, §2, §3, §4, §5, §6

Row | SMILES | lifespan in C. elegans (C. elegans) | morphology of mitochondria in the muscle [1] | lifespan of nematodes [2] | lifespan compared with the wild type strain ([3]; daf-16 gene variant strain (mu86) with febuxostat) | lifespan ([3]; daf-16 gene variant strain (mu86), febuxostat 10 mg/ml, 20° C., FIG. 3) | lifespan [4]
1 | CN(C)C(=N)N=C(N)N [metformin] | prolongs the lifespan |  |  |  |  | 
2 | Cc1nc(-c2ccc(OCC(C)C)c(C#N)c2)sc1C(=O)O [febuxostat] |  | morphology of mitochondria is maintained almost normally | lifespan of nematodes is extended | did not reach the same length of lifespan as that of the wild type strain | showed an extension of lifespan | showed an extension of lifespan
